The source of these data is US20250275959A1, “COMPOUNDS AND METHODS OF THEIR USE” (LEXICON PHARMACEUTICALS, INC., priority 2024, published 2025).

Experiment [1] addresses T1, hACSL5 (Homo sapiens (Human), UniProt Q9ULC5). In words: Cell-based assay (CBA) with B12FA in hACSL5-transfected Expi293F / FlpIn TRex293 cells. The note with it: hACSL5-expressing cells. An outline of the steps: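 hACSL5-expressing Expi293F or tetracycline-induced FlpIn TRex293 cells, serum- and glucose-starved 1 h, then treated 3 h with serially diluted compound plus 20 µM B12FA. After fixation, 630/520 nm emission ratio (ex 485 nm) gave % inhibition versus no-inhibitor and 10 µM compound/non-induced controls; IC50 by Hill fit.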
Target sequence in this assay (Q9ULC5 whole entry): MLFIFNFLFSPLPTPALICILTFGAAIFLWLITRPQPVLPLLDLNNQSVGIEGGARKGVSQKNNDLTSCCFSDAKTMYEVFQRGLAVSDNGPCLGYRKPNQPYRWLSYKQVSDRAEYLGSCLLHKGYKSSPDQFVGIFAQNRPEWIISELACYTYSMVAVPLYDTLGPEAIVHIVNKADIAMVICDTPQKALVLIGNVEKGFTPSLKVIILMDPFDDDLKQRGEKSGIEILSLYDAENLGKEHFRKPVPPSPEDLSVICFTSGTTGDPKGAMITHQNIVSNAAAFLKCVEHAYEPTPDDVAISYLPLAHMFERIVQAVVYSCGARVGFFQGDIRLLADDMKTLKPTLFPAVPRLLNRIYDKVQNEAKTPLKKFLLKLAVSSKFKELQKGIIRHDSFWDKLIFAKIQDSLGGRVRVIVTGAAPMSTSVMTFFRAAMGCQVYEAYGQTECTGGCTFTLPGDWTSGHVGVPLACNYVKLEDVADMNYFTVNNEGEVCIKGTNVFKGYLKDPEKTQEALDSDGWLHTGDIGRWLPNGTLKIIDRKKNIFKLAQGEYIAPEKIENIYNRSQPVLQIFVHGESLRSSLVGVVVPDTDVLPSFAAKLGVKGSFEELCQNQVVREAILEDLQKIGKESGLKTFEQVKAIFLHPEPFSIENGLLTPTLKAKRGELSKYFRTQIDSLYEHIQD

Experiment [2] addresses T1, hACSL5. Nature of the experiment: Human ACSL5 coupled enzyme Amplex Red assay. The experiment is classed as biochemical. The note with it: read-out: hACSL5 IC50. Summed up: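 C-terminally His-tagged ACSL5 (33-683) from sf9 cells, 20 nM, was preincubated with compound in MOPS-NaOH pH 7.6 with MgCl2, peroxidase and acyl-CoA oxidase. Reactions were started with 25 μM oleate, 30 μM CoA, 1 mM ATP and 50 μM Amplex Red; fluorescence (535/590 nm) after 10 minutes at 25° C. was fitted to the Hill equation for IC50 and maximal inhibition.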
Target sequence in this assay (Q9ULC5 33-683): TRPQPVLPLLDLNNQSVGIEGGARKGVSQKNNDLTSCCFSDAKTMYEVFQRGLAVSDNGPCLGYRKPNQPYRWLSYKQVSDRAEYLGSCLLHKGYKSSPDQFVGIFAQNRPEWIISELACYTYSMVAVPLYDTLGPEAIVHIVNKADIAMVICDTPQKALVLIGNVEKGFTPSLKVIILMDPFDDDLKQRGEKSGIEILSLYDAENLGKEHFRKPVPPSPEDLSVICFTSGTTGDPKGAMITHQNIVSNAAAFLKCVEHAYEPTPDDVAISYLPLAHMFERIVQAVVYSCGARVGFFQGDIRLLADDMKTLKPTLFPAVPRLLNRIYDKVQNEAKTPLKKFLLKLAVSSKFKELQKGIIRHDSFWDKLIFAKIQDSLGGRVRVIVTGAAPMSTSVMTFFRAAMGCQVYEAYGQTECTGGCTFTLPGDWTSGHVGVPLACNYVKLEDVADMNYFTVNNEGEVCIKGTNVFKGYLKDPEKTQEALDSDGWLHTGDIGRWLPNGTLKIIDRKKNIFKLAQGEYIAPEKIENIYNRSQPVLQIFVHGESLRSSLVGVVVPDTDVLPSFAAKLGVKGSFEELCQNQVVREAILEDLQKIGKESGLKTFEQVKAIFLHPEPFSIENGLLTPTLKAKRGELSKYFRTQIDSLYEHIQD

In general, IC50 refers to the point on the concentration scale where inhibition reaches its midpoint. Take `C[C@@H](Oc1ccc(C(=O)NS(=O)(=O)N2CCC(OC3CCN(C)CC3)CC2)cc1C(F)(F)F)c1ccc(Oc2ccccn2)cn1` [(R)-N-((4-((1-methylpiperidin-4-yl)oxy)piperidin-1-yl)sulfonyl)-4-(1-(5-(pyridin-2-yloxy)pyridin-2-yl)ethoxy)-3-(trifluoromethyl)benzamide]: the 50% inhibitory concentration (IC50) on hACSL5 [1] and on hACSL5 [2] was < 100 nM each time.
As to `CC[C@@H](Oc1ccc(C(=O)NS(=O)(=O)N2CCC(OC3CCN(C)CC3)CC2)cc1C(F)(F)F)c1ccc(Oc2ccccn2)cn1` [(R)-N-((4-((1-methylpiperidin-4-yl)oxy)piperidin-1-yl)sulfonyl)-4-(1-(5-(pyridin-2-yloxy)pyridin-2-yl)propoxy)-3-(trifluoromethyl)benzamide], the IC50 against hACSL5 [1] and on hACSL5 [2] was < 100 nM each time.
As for `CC[C@@H](Oc1ccc(C(=O)NS(=O)(=O)c2ccc(OCc3c[nH]cn3)cc2)c(F)c1F)c1ccc(OCCOC)cn1` [(R)-N-((4-((1H-imidazol-4-yl)methoxy)phenyl)sulfonyl)-2,3-difluoro-4-(1-(5-(2-methoxyethoxy)pyridin-2-yl)propoxy)benzamide], the IC50 is > 500 nM at hACSL5 [1] and < 100 nM on hACSL5 [2].
The corresponding values for `CC[C@@H](Oc1ccc(C(=O)NS(=O)(=O)N2CCN(CC3CC3)CC2)c(F)c1F)c1ccc(Oc2ccccn2)cn1` [(R)-N-((4-(cyclopropylmethyl)piperazin-1-yl)sulfonyl)-2,3-difluoro-4-(1-(5-(pyridin-2-yloxy)pyridin-2-yl)propoxy)benzamide] are < 100 nM and < 100 nM.
The corresponding values for `CC[C@@H](Oc1ccc(C(=O)NS(=O)(=O)N2CCN(C3CCC3)CC2)c(F)c1F)c1ccc(Oc2ccccn2)cn1` [(R)-N-((4-cyclobutylpiperazin-1-yl)sulfonyl)-2,3-difluoro-4-(1-(5-(pyridin-2-yloxy)pyridin-2-yl)propoxy)benzamide] are < 100 nM and < 100 nM.
The corresponding values for `CC[C@@H](Oc1ccc(C(=O)NS(=O)(=O)N2CCN(C3CCC3)CC2)c(F)c1F)c1ccc(OCC2CC2)cn1` [(R)-N-((4-cyclobutylpiperazin-1-yl)sulfonyl)-4-(1-(5-(cyclopropylmethoxy)pyridin-2-yl)propoxy)-2,3-difluorobenzamide] are < 100 nM and < 100 nM.
`CC[C@@H](Oc1ccc(C(=O)NS(=O)(=O)N2CCN(C3CCCCC3)CC2)c(F)c1F)c1ccc(Oc2ccccn2)cn1` [(R)-N-((4-cyclohexylpiperazin-1-yl)sulfonyl)-2,3-difluoro-4-(1-(5-(pyridin-2-yloxy)pyridin-2-yl)propoxy)benzamide]: the IC50 at hACSL5 [1] is 100 to 500 nM; on hACSL5 [2], < 100 nM.
As to `CC[C@@H](Oc1ccc(C(=O)NS(=O)(=O)N2CCN(C3CCCCC3)CC2)c(F)c1F)c1ccc(OCC2CC2)cn1` [(R)-N-((4-cyclohexylpiperazin-1-yl)sulfonyl)-4-(1-(5-(cyclopropylmethoxy)pyridin-2-yl)propoxy)-2,3-difluorobenzamide], the IC50 against hACSL5 [1] is > 500 nM; on hACSL5 [2], < 100 nM.
For `CC[C@@H](Oc1ccc(C(=O)NS(=O)(=O)N2CCN(C3CCCC3)CC2)c(F)c1F)c1ccc(Oc2ccccn2)cn1` [(R)-N-((4-cyclopentylpiperazin-1-yl)sulfonyl)-2,3-difluoro-4-(1-(5-(pyridin-2-yloxy)pyridin-2-yl)propoxy)benzamide] the same measures were 100 to 500 nM and < 100 nM.
The corresponding values for `CC[C@@H](Oc1ccc(C(=O)NS(=O)(=O)N2CCN(C3CCCC3)CC2)c(F)c1F)c1ccc(OCC2CC2)cn1` [(R)-N-((4-cyclopentylpiperazin-1-yl)sulfonyl)-4-(1-(5-(cyclopropylmethoxy)pyridin-2-yl)propoxy)-2,3-difluorobenzamide] are 100 to 500 nM and < 100 nM.
The corresponding values for `CC[C@@H](Oc1ccc(C(=O)NS(=O)(=O)N2CCN(C3CC3)CC2)c(F)c1F)c1cc(Oc2ccccn2)ccn1` [(R)-N-((4-cyclopropylpiperazin-1-yl)sulfonyl)-2,3-difluoro-4-(1-(4-(pyridin-2-yloxy)pyridin-2-yl)propoxy)benzamide] are 100 to 500 nM and < 100 nM.
Regarding `CC[C@@H](Oc1ccc(C(=O)NS(=O)(=O)N2CCN(C3CC3)CC2)c(F)c1F)c1ccc(Oc2ccccn2)cn1` [(R)-N-((4-cyclopropylpiperazin-1-yl)sulfonyl)-2,3-difluoro-4-(1-(5-(pyridin-2-yloxy)pyridin-2-yl)propoxy)benzamide], the IC50 on hACSL5 [1] and at hACSL5 [2] was < 100 nM in each case.
For `CC[C@@H](Oc1ccc(C(=O)NS(=O)(=O)N2CCN(CC)CC2)c(F)c1F)c1ccc(Oc2ccccn2)cn1` [(R)-N-((4-ethylpiperazin-1-yl)sulfonyl)-2,3-difluoro-4-(1-(5-(pyridin-2-yloxy)pyridin-2-yl)propoxy)benzamide], the IC50 against hACSL5 [1] and at hACSL5 [2] was < 100 nM each time.
For `CC[C@@H](Oc1ccc(C(=O)NS(=O)(=O)N2CCN(CC)CC2)cc1C(F)(F)F)c1ccc(Oc2ccccn2)cn1` [(R)-N-((4-ethylpiperazin-1-yl)sulfonyl)-4-(1-(5-(pyridin-2-yloxy)pyridin-2-yl)propoxy)-3-(trifluoromethyl)benzamide], the IC50 at hACSL5 [1] and on hACSL5 [2] was < 100 nM in each case.
`CC[C@@H](Oc1ccc(C(=O)NS(=O)(=O)N2CCN(C)CC2)cc1C(F)(F)F)c1ccc(Oc2ccccn2)cn1` [(R)-N-((4-methylpiperazin-1-yl)sulfonyl)-4-(1-(5-(pyridin-2-yloxy)pyridin-2-yl)propoxy)-3-(trifluoromethyl)benzamide]: the IC50 against hACSL5 [1] and at hACSL5 [2] was < 100 nM in each case.
`CCOc1ccc(C(C)Oc2ccc(C(=O)NS(=O)(=O)c3ccc(OCCn4ccnc4)cc3)c(F)c2F)nc1` (centres unmarked) [N-((4-(2-(1H-imidazol-1-yl)ethoxy)phenyl)sulfonyl)-4-(1-(5-ethoxypyridin-2-yl)ethoxy)-2,3-difluorobenzamide]: the results for the IC50 against hACSL5 [1] and at hACSL5 [2] were > 500 nM and 100 to 500 nM, respectively.
For `CC[C@@H](Oc1ccc(C(=O)NS(=O)(=O)c2ccc(OCCN(C)C)cc2)c(F)c1F)c1ccc(OC2CC(OC)C2)cn1` (stereo partly drawn) [N-((4-(2-(dimethylamino)ethoxy)phenyl)sulfonyl)-2,3-difluoro-4-((R)-1-(5-((1R,3R)-3-methoxycyclobutoxy)pyridin-2-yl)propoxy)benzamide] the same measures were 100 to 500 nM and < 100 nM.
The corresponding values for `CC[C@@H](Oc1ccc(C(=O)NS(=O)(=O)c2ccc(OCCN(C)C)cc2)cc1C(F)(F)F)c1ccc(OC2CC(OC)C2)cn1` (stereo partly drawn) [N-((4-(2-(dimethylamino)ethoxy)phenyl)sulfonyl)-4-((R)-1-(5-((1R,3R)-3-methoxycyclobutoxy)pyridin-2-yl)propoxy)-3-(trifluoromethyl)benzamide] are 100 to 500 nM and 100 to 500 nM.
With `CC[C@@H](Oc1ccc(C(=O)NS(=O)(=O)c2ccc(O[C@@H]3C[C@H]4C[C@@H]3CN4)cc2)c(F)c1F)c1ccc(OCC2CC2)cn1` [N-((4-(((1R,4R,5R)-2-azabicyclo[2.2.1]heptan-5-yl)oxy)phenyl)sulfonyl)-4-((R)-1-(5-(cyclopropylmethoxy)pyridin-2-yl)propoxy)-2,3-difluorobenzamide], the IC50 is > 500 nM on hACSL5 [1] and < 100 nM on hACSL5 [2].
